Source: PubChem BioAssay AID179 (DTP/NCI, 2004)
Calls of active or inactive are those of the source.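 How the source made its calls: active means compounds giving half or more protection of infected cells from virus-caused growth loss, again on retest; inactive means the rest.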 Where a SMILES comes first, the peptide text is derived from it. The star is where a group is joined. Cbz = O=C(OCc1ccccc1)*

Tested on: CEM cells HIV-1 protection, formazan growth assay
Assay: NCI AIDS Antiviral Assay
Conditions: for IC50: measured here: growth of uninfected CEM cells
Outline: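 Human CEM cells, uninfected and HIV-1-infected, received five drug concentrations, and growth was read by soluble formazan assay. Compounds giving at least 50% protection were retested; reproducible 100% protection defined confirmed active.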

| Structure (SMILES) | EC50 [µM] | IC50 [µM] | outcome |
| --- | --- | --- | --- |
| CCCC(=O)NC1Cc2cc(C)cc(C)c21 (stereo not given) | > 45.7 | > 45.7 | – |
| Cc1ccc(S(=O)(=O)NCCN(CCNS(=O)(=O)c2ccc(C)cc2)S(=O)(=O)c2ccc(C)cc2)cc1 | > 200 | > 200 | – |
| CNc1ccc(N=O)cc1 | > 200 | 1.07 | – |
| Oc1cccnc1/C=N/OCc1ccccc1 | > 295 | 219 | – |
| FC(F)(F)C(C1=NC(C(F)(F)F)(C(F)(F)F)N=C(N2CCOCC2)O1)C(F)(F)F | > 2 | > 2 | – |
| COc1cccc(NC(=O)CC(=O)NN)c1 | > 200 | > 200 | – |
| CC1CCC2c3c([nH]c4ccccc34)C3C(=O)N(c4ccccc4)C(=O)C3C2C1 (stereo not given) | – | – | inactive |
| CC(C)(C)C(=O)/C=C/c1ccc(-c2ccccc2)cc1 | > 19.5 | > 19.5 | – |
| C[C@H]1ON2CCC[C@@H]2[C@@H]1C(=O)N1C2CC3CCC2(CS1(=O)=O)C3(C)C (stereo not given in full) | > 200 | > 200 | – |
| Cn1c(SCc2ccc([N+](=O)[O-])cc2)nnc1C12CC3CC(CC(C3)C1)C2 | > 200 | 110 | – |
| CN(C(=O)c1ccccc1S)c1ccccc1 | > 200 | 20.4 | – |
| C=C(CCOC)CCC1CCCCC(=C)[C@H]1O (stereo not given in full) | > 200 | > 200 | – |
| N#CC(C(=O)/C(=N\Nc1nc(=S)[nH]n1N)C(C#N)c1ccc(Cl)cc1)c1ccc(Cl)cc1 (stereo not given) | > 53.7 | > 53.7 | – |
| CSc1nc(-c2ccccc2)[nH]c(=O)n1 | > 200 | > 200 | – |
| CC1C(=O)C2CC3(C)CO[C@@]2(C3O)[C@@]2(C)CC[C@@H]12 (stereo not given in full) | – | – | inactive |
| O=C(O)CCc1ccc2c(c1)C(=O)CC2 | > 200 | > 200 | – |
| O=C(O)CCCO | > 200 | > 200 | – |
| Nc1ccc(C(=O)N/C(=C\c2cccc([N+](=O)[O-])c2)c2nc3ccccc3[nH]2)cc1 | – | – | inactive |
| CCOC(OCC)C(CC)[Se]c1ccccc1[N+](=O)[O-] (stereo not given) | > 28.8 | 1.7 | – |
| COC(=O)[C@H]1N[C@@H](C(=O)OC)C23CCC[C@H]2CC[C@]1(C(OC)OC)C3 | > 708 | 389 | – |
| CC1(C)Oc2ccc3c(=O)c4ccccc4oc3c2C1C(=O)O (stereo not given) | > 200 | > 200 | – |
| COc1ccc(/C=C/C(=O)c2ccccc2)cc1 | > 41.7 | 24.5 | – |

| Structure (SMILES) | EC50 [µM] | IC50 [µM] | outcome |
| --- | --- | --- | --- |
| CC(C)(C)[Si](C)(C)OCC1OC(n2ccc(=O)[nH]c2=O)C(CCN(O)CC2OC(n3ccc(=O)[nH]c3=O)C(O[Si](C)(C)C(C)(C)C)C2O[Si](C)(C)C(C)(C)C)C1O[Si](C)(C)C(C)(C)C (stereo not given) | > 126 | 105 | – |
| CCN(CC)c1ccc2cc(C(=O)Nc3cccc4ccccc34)c(=N)oc2c1 | > 200 | 12.6 | – |
| CCCc1cc(=O)[nH]c2c3c(c4c(c12)OC(C)(C)C=C4)O[C@H](C)[C@@H](C)[C@@H]3O | 0.12 | 2 | – |
| COc1c(O)c2ccccc2c2cc(O)ccc12 | > 1050 | 5.25 | – |
| CN1CCCNCCN(CCc2ccccn2)CCCN(C)CC1 | > 132 | > 132 | – |
| O=C(O)c1ccccc1-c1c2ccc(=O)c(O)c-2oc2c(O)c(O)ccc12 | > 25.1 | 8.71 | – |
| CC(C)C(NC(=O)C1CCCN1C(=O)OCc1ccccc1)C(=O)O (stereo not drawn) (Cbz-Pro-Val-OH; configuration not given here) | > 724 | > 724 | – |
| O=S(=O)(O)c1cc(O)c2ccc3c(S(=O)(=O)O)cc(S(=O)(=O)O)c4ccc1c2c34 | – | – | inactive |
| Cc1ccc(S(=O)(=O)N2CCNCCN(S(=O)(=O)c3ccc(C)cc3)CCNCC2)cc1 | > 126 | 51.3 | – |
| O=C1OC(=O)C2C1C1(c3ccccc3)OC2(c2ccccc2)c2c(Br)c(Br)c(Br)c(Br)c21 (stereo not given) | – | – | inactive |
| N#Cc1cccc(C2C(=O)c3ccc(C(=O)c4ccc5c(c4)C(=O)N(c4ccc(Oc6ccc(N7C(=O)c8ccc(C(=O)c9ccc%10c(c9)C(=O)N(c9cccc(C#N)c9)C%10=O)cc8C7=O)cc6)cc4)C5=O)cc3C2=O)c1 (stereo not given) | > 3.47 | > 3.47 | – |
| O=C(c1nc2ccccc2[nH]c1=O)C(O)c1ccccc1 (stereo not given) | > 468 | 151 | – |
| O=C(OCC1CCCN2CCCCC12)c1cccnc1 (stereo not given) | > 200 | > 200 | – |
| COc1cc(C2c3cc4c(cc3OC3(OC)COC(=O)C23)OCO4)cc(OC)c1OC (stereo not given) | > 2 | 0.24 | – |
| COc1ccc(C(=O)C(C(=O)CCC(=O)Nc2ccc(C)c(C)c2)c2ccc(OC)cc2)cc1 (stereo not given) | > 21.9 | > 21.9 | – |
| COC(=O)C12C3C4C1C1C2C3C41I (stereo not given) | > 126 | > 126 | – |
| O=S1(=O)NCNc2cc(C(F)(F)F)ccc21 | > 1000 | 380 | – |
| CN(C)CCNC(=O)c1cccc(N(C)C(=O)c2ccccc2)c1[N+](=O)[O-] | > 200 | > 200 | – |
| CC(=O)OC1CC2CCC3C(CCC4(C)C3CC([N+]3(C)CCCCC3)C4OC(C)=O)C2(C)CC1[N+]1(C)CCCCC1 (stereo not given) | > 200 | > 200 | – |
| CN(CCO)c1nc(N)cc(=O)[nH]1 | > 1350 | > 1350 | – |
| CS1(=O)=NC(=NC#N)c2ccccc21 (stereo not given) | – | – | inactive |
